What all share (assay type): protein assay
For experiment [1], the target named is T1, Alpha-1,2-mannosidase (BT_1769) (Bacteroides thetaiotaomicron) (UniProt Q8A6V7).
T1 sequence (whole entry): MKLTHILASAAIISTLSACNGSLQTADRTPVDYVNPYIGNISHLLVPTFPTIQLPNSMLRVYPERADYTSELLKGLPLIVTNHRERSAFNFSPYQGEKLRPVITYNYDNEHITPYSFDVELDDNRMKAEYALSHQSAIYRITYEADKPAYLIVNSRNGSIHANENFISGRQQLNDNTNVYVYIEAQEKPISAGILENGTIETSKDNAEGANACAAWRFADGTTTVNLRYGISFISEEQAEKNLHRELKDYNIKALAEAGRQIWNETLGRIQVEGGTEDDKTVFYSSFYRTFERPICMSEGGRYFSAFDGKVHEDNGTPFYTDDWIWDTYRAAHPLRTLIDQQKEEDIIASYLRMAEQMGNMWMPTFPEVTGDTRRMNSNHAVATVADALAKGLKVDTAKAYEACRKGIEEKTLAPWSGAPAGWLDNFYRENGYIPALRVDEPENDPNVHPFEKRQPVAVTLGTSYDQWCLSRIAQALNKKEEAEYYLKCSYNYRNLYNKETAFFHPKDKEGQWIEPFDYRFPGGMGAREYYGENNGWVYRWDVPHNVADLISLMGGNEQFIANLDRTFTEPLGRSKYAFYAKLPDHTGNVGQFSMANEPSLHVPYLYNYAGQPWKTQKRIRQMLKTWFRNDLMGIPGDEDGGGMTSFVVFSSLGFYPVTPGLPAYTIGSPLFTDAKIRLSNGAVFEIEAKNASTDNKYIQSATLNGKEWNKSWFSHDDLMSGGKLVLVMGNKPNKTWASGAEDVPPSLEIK
Description: Activity of Bacteroides thetaiotaomicron GH92 alpha-mannosidase GH92 alpha-mannosidase 1769 assessed as mannose release at 1 mM after 16 hrs by HPLC relative to untreated control after 16 hrs by HPLC.

Experiment [2] concerns the target T2, Alpha-1,2-mannosidase (BT_2199) (Bacteroides thetaiotaomicron) (UniProt Q8A5N9).
T2 sequence (whole entry): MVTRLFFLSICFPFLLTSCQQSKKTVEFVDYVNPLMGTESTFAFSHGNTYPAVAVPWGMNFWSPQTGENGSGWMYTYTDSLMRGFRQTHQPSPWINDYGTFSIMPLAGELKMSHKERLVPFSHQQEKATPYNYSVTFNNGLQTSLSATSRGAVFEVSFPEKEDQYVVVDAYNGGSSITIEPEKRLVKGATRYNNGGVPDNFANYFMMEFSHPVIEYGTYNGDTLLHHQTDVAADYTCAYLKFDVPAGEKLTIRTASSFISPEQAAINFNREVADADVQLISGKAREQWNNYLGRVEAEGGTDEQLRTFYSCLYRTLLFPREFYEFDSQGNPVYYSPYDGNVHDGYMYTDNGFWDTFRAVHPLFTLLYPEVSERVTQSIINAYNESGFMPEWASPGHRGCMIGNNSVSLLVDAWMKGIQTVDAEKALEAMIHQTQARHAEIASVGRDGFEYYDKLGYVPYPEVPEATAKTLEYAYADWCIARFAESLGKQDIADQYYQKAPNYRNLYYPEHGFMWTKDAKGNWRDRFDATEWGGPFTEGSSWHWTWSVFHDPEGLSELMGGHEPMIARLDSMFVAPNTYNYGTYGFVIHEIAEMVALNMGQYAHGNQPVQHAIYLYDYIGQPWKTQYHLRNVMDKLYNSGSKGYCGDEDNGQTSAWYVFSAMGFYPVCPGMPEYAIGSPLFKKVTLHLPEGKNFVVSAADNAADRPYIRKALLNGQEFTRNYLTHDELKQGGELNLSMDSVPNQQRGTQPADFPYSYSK
Description: Activity of Bacteroides thetaiotaomicron GH92 alpha-mannosidase GH92 alpha-mannosidase 2199 assessed as mannose release at 1 mM after 16 hrs by HPLC relative to untreated control after 16 hrs by HPLC.

Experiment [3] deals with T3, Glycoside hydrolase family 92 (BT_3963) (Bacteroides thetaiotaomicron) (UniProt Q8A0Q8).
T3 sequence (whole entry): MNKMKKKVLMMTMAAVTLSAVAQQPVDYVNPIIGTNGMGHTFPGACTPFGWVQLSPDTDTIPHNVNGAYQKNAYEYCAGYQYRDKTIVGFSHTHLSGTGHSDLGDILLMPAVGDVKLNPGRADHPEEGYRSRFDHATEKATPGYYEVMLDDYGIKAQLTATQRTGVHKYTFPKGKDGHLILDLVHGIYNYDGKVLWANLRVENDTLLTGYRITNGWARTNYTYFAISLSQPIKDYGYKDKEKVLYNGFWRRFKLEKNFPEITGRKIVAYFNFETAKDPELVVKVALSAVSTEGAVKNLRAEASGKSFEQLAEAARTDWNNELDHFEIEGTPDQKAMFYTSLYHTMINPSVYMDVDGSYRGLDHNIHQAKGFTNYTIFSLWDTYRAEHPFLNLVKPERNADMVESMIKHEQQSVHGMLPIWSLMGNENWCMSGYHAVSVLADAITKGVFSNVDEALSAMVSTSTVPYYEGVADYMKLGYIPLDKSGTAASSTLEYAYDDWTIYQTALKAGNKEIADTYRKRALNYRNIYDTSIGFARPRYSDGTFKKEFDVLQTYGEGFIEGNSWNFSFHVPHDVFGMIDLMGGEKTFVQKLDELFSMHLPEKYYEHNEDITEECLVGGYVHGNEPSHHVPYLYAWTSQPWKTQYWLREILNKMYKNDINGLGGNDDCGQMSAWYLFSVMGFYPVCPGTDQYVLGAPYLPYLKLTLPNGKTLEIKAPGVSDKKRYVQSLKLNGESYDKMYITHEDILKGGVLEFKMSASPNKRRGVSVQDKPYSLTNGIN
Description: Activity of Bacteroides thetaiotaomicron GH92 alpha-mannosidase GH92 alpha-mannosidase 3963 assessed as mannose release at 1 mM after 16 hrs by HPLC relative to untreated control after 16 hrs by HPLC.

The source made the active and inactive calls. The rule behind the calls is not given here.

Regarding `OC[C@H]1O[C@H](O[C@H]2[C@@H](O)[C@H](O)[C@@H](CO)O[C@@H]2O)[C@@H](O)[C@@H](O)[C@@H]1O`, the values for the Activity in experiment [1] and in experiment [2] were 0.0023% and 100%, respectively. Moreover, the result in experiment [3] was inactive.

With `OC[C@H]1O[C@H](O[C@H]2[C@H](O)[C@H](O)[C@@H](O)O[C@@H]2CO)[C@@H](O)[C@@H](O)[C@@H]1O`, the Activity turned out to be 0.026% in experiment [1] and 0.12% in experiment [2]. Also, the result in experiment [3] was inactive.

For `OC[C@H]1O[C@H](OC[C@H]2O[C@H](O)[C@@H](O)[C@@H](O)[C@@H]2O)[C@@H](O)[C@@H](O)[C@@H]1O`, the outcome in experiment [1], in experiment [2] and in experiment [3] was inactive.

Regarding `OC[C@H]1O[C@H](O[C@@H]2[C@H](O)[C@@H](O)O[C@H](CO)[C@H]2O)[C@@H](O)[C@@H](O)[C@@H]1O`, the result in experiment [2] and in experiment [3] was inactive.

These data come from ChEMBL document CHEMBL1250451, “Mechanistic insights into a Ca2+-dependent family of alpha-mannosidases in a human gut symbiont” (Nat Chem Biol, 2010).
